Values of other authors as cited in US20260355142A1, “AMORPHOUS OTE[…] COMPOSITIONS AND USES THEREOF AND DOSAGE REGIMENS FOR OTENAPROXESUL” (ANTIBE THERAPEUTICS INC., priority 2022, published 2026).

Conditions: efficacious dose of naproxen, known in the art; cited from earlier work

## COc1ccc2cc([C@H](C)C(=O)O)ccc2c1 [naproxen, (2S)-2-(6-methoxynaphthalen-2-yl) propanoic acid]
  patients with noticeable GI injury: approximately 30%
